Values quoted from earlier work in patent US20100322881A1, “UVB FILTER BASED ON ASCORBIC ACID DERIVATIVES” (MERCK PATENT GESELLSCHAFT, priority 2008, published 2010).

Tested on: prolyl-4-hydroxylase
Settings: literature statement; for supporting the activity of the enzyme prolyl-4-hydroxylase: Biochem. J. 1994, 300, 75-79

SMILES	affinity to the enzyme (compared with the monosubstituted compound)	supporting the activity of the enzyme prolyl-4-hydroxylase
CC(=O)Oc1ccccc1C(=O)OC[C@H](OC(=O)c1ccccc1OC(C)=O)[C@H]1OC(=O)C(O)=C1O [O^5O^6-bis(2-acetoxybenzoyl) L-ascorbate]	lower affinity	capable of supporting the activity
CC(=O)Oc1ccccc1C(=O)OC[C@H](O)[C@H]1OC(=O)C(O)=C1O [O^6-(2-acetoxybenzoyl) L-ascorbate]		capable of supporting the activity
